EP0203736A1, “Antiviral compounds” (THE WELLCOME FOUNDATION LIMITED, priority 1985, dated 1986)

System: herpes simplex
Assay: In vivo potency against herpes simplex infection in intra-cerebrally infected mice (survival times, MRST)
Design: species or system CD 1 mice
Conditions: for MRST: mean reciprocal survival time; for MRST / Survival Times / survivors: 50 mg/kg twice daily for 4.5 days; for MRST / Survival Times: recorded over 14 days; for Survival Times / survivors: 10 animals; for Survival Times: figures = number of animals that died (on the day in parentheses); for survivors: 14 days, 1 mouse died within 24 hours of infection
Protocol: The compounds of Examples 1 and 2 were tested in vivo to determine their potency in vivo against herpes simplex infections. The compounds were tested in comparison with the 6-deoxy analogue of the compound of Example 1, namely 9-(3,4-dihydroxybutyI) guanine (DHBG). The following is description of the testing.
The compounds were tested in CD 1 mice infected with herpes simplex ICI cell culture stock having a titre of 1 x 10^5 plaque forming units (pfu)/ml and administered to the mice in a dose of 0.025ml by the intra-cerebral route.
The test compounds were prepared as aqueous suspensions or solutions, each compound being administered at a dose of 50 mg/kg in a volume of 0.1 ml, by either the oral or sub-cutaneous (s.c.) route, to a treatment group of animals. Each group contained 10 animals for each compound and for each route of administration.
Treatment of the animals commenced 2-3 hours after infection and continued twice daily for 4.5 days.
A group of 13 animals which were infected but untreated served as controls.
Survival times for the test animals were recorded over 14 days and expressed as mean reciprocol survival times (MRST).
The results shown in the following table were obtained in which the figures in the column headed "Survival Times" indicate the number of animals that died on the day indicated in parentheses.

| Structure (SMILES) | MRST (oral) | MRST (s.c.) | Survival Times (oral) | Survival Times (s.c.) | survivors (oral) | survivors (s.c.) | antiviral effect in vivo against HSV (summary statement, particularly in comparison with DHBG) |
| --- | --- | --- | --- | --- | --- | --- | --- |
| Nc1nc2c(ncn2CCC(O)CO)c(=O)[nH]1 (stereo not drawn) [DHBG, 9-(3,4-dihydroxybutyI) guanine, reference compound] | 0.18 | 0.155 | 1(4.5), 3(5), 5(6), 1(7) | 1(5), 3(6), 5(7), 1(7.5) |  |  |  |
| Nc1ncc2ncn(CCC(O)CO)c2n1 (stereo not drawn) [Example 1, 2-Amino-9-(3,4-dihydroxybutyl)-9H-purine] | 0.154 | 0.160 | 1(5), 4(6), 3(7), 1(7.5), 1(9) | 7(6), 3(7) |  |  |  |
| Nc1ncc2ncn(COCC(O)CO)c2n1 (stereo not drawn) [Example 2] | 0.059 | 0.054 | 1(6), 1(7), 1(8), 1(10.5) | 3(8), 1(9) | 5 | 5 | potent antiviral effect |
